Data on one compound can be found in patent US11440932B2, “Surfactant compounds-clips for extraction and stabilization in solution of membrane proteins” (CENTRE NATIONAL DE LA RECHERCHE SCIENTIFIQUE, priority 2017, dated 2022).

The assay addresses T1, BmrA (Bacillus subtilis, UniProt O06967).
T1 construct: His tag; made in house; host or cells: E. coli C41(DE3)
The experiment in a line: Size exclusion chromatography of BmrA after detergent exchange. The method, then: The membrane fraction was extracted and purified in DDM by Ni-NTA metal affinity and Superdex 200 size exclusion, before being reloaded on Ni-NTA in order to exchange the DDM either with itself or with the compound 3.7c. Each pool was subsequently loaded onto a 3 ml Superdex S200 5/150 size exclusion column and eluted in the presence of 2 CMC of the same detergent, as indicated. The proteins are detected by absorbance at 280 nm.
The capacity of the compounds of the invention to maintain the membrane proteins in a native state was exemplified with the compound 3.7c of the invention, monitored by size exclusion chromatography and compared to the reference detergent DDM.
Procedure: BmrA was extracted in DDM and purified by Ni-NTA affinity chromatography as described in example 13, then loaded onto a Superdex 200 10/300 size exclusion column and eluted with 50 mM Hepes-HCl pH 8.0, 100 mM NaCl, 0.4 mM DDM (2×CMC). The fractions containing BmrA were pooled and separated into several aliquots (˜100 μg) kept at 4° C. One aliquot was subsequently reloaded onto an affinity column containing 1 ml of resin. The DDM was then exchanged against 10 volumes of Hepes-NaCl buffer containing either 2 CMC of DDM (control experiment) or 2 CMC of compound 3.7c (2 mM). BmrA was subsequently eluted in the respective buffers with 100 mM of imidazole added. The fractions containing the proteins were combined and concentrated on 50 kDa amicon (regenerated cellulose) to 50 μl, and were then deposited on a 3 ml Superdex 200 5/150 size exclusion column, equilibrated in 50 mM Hepes-HCl pH 8.0, 100 mM NaCl, and 2 CMC of DDM (0.4 mM) or 3.7c (2 mM). The elution was subsequently carried out at 0.3 ml/min in the respective buffers and the BmrA detected at 280 nm.
A general note: SEC sorts molecules by how far they enter the pores of the column.

T1 sequence (O06967 whole entry): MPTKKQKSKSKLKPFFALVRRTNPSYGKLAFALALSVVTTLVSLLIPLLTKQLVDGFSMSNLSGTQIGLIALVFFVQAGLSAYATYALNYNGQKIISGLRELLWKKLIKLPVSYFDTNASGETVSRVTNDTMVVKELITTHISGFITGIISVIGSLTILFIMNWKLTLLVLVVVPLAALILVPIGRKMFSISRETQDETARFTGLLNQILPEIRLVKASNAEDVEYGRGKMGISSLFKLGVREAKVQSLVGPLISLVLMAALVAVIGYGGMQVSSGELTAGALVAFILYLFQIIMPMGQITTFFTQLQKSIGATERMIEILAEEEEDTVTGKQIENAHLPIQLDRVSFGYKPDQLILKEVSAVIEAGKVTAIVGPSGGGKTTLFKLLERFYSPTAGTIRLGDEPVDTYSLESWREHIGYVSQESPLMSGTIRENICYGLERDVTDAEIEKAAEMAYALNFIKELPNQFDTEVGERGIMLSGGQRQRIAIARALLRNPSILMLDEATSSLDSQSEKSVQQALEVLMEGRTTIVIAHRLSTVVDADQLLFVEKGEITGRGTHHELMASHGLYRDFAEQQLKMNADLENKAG

For `CCCCCCCCCCCCCC(=O)N[C@@H](COCc1cn(CCO[C@@H]2OC(CO)[C@@H](O)C(O)C2O)nn1)C(=O)N[C@H](CCC(=O)O)C(=O)O` (some centres unmarked) [Compound 3.7c], the “elution volume of BmrA” value (Superdex 200 5/150, 2 CMC of detergent, 0.3 ml/min) was ~1.6 mL. The “oligomerization state of BmrA” value (after exchange of DDM, 2 CMC (2 mM)) is given as “conserves the native oligomerization state”.
